# According to patent EP0469010B1, “COSMETIC COMPOSITION” (priority 1989, dated 1990):
# Where a name gives a salt, the structure may show the parent alone.
# Assays:
# Format in all cases: in vivo, human
# Ludwig type alopecia = assay: Clinical pilot study of topical sodium sucrose sulfate in alopecia: Ludwig type alopecia in females; conditions: 5 females aged 20-49 years, treated 6-8 months, 3% solution topically
# Protocol: (§1) The test preparation was a 3% solution of Na-sucrose sulfate in a vehicle of 50% water/25% ethanol/25% propylene glycol (w/w), dispensed in 35 ml bottles with a sponge for topical administration on the scalp. The test preparation was applied morning and evening on the scalp, preferably on areas of partial or total alopecia. In average the patients have been using one bottle per month.
# (§2) All patients were recruited by one dermatologist, and the effect of treatment was evaluated clinically by the same investigator, at monthly clinic visits.
# (§3) The clinical effect was classified as very good in cases of definite cosmetic benefit, as good in cases of significant regrowth of new hair, but not to an extend that is cosmetically apparent at distance, and as no effect in cases of no or only marginal regrowth of hair.
# 5 Females aged from 20-49 years with Ludwig type alopecia were treated with the test drug for 6-8 months.
# underlying discoid LE = assay: Clinical pilot study of topical sodium sucrose sulfate in alopecia: underlying discoid LE; design: key: very good in cases of definite cosmetic benefit; good in cases of significant regrowth of new hair, but not to an extend that is cosmetically apparent at distance; no effect in cases of no or only marginal regrowth of hair; conditions: 2 female patients, treated 2 and 4 months; regrowth except for the very center of the lesion
# Protocol: (§4) During a 11 month period (April 1989 to March 1990), a total of 50 patients participated in a pilot study, evaluating the effect of the sodium salt of sucrose sulfate administered topically for the treatment of alopecia.
# as §1, §2, §3
# 2 female patients with underlying discoid LE were successfully treated for 2 and 4 months, respectively, with a very good effect comprising regrowth of hair except for the very center of the lesion.
# alopecia areata = assay: Clinical pilot study of topical sodium sucrose sulfate in alopecia: alopecia areata; design: key: very good in cases of definite cosmetic benefit; good in cases of significant regrowth of new hair, but not to an extend that is cosmetically apparent at distance; no effect in cases of no or only marginal regrowth of hair; conditions: 5 female patients aged 39 to 46 years, treated 2 to 9 months, 3% solution topically
# Protocol: as §4, §1, §2, §3
# 5 Female patients with alopecia areata aged from 39 years to 46 years were treated for periods from 2 to 9 months, the treatment showing a very good effect.
# [1] = system: subtotal or total alopecia, with underlying atopic dermatitis; assay: Clinical pilot study of topical sodium sucrose sulfate in alopecia: subtotal or total alopecia; conditions: 3% solution topically
# Protocol: as §4, §1, §2, §3
# 2 Patients suffered from subtotal or total alopecia, with underlying atopic dermatitis.
# Male androgenic alopecia [2] = assay: Clinical pilot study of topical sodium sucrose sulfate in alopecia: male androgenic alopecia; design: key to clinical effect: very good in cases of definite cosmetic benefit; good in cases of significant regrowth of new hair, but not to an extend that is cosmetically apparent at distance; no effect in cases of no or only marginal regrowth of hair; conditions: for clinical effect: 4 patients; for Clinical effect Good (number of patients) / Clinical effect No effect (number of patients) / Clinical effect Very good (number of patients): 3% solution topically morning and evening, about 3 to 9 months
# Protocol: During a 11 month period (April 1989 to March 1990), a total of 50 patients participated in a pilot study, evaluating the effect of the sodium salt of sucrose sulfate administered topically for the treatment of alopecia. The test preparation was a 3% solution of Na-sucrose sulfate in a vehicle of 50% water/25% ethanol/25% propylene glycol (w/w), dispensed in 35 ml bottles with a sponge for topical administration on the scalp. The test preparation was applied morning and evening on the scalp, preferably on areas of partial or total alopecia. In average the patients have been using one bottle per month. All patients were recruited by one dermatologist, and the effect of treatment was evaluated clinically by the same investigator, at monthly clinic visits. The clinical effect was classified as very good in cases of definite cosmetic benefit, as good in cases of significant regrowth of new hair, but not to an extend that is cosmetically apparent at distance, and as no effect in cases of no or only marginal regrowth of hair. Male androgenic alopecia was the clinical diagnosis in 35 patients, their age ranging from 17 years to 50 years. Period of treatment was about 3 months in 15 case, about 6 months in 10 cases, and about 9 months in 10 cases.
# [3] = system: very bad hair condition and underlying psoriasis; assay: Clinical pilot study of topical sodium sucrose sulfate in alopecia: bad hair condition with psoriasis; design: key: very good in cases of definite cosmetic benefit; good in cases of significant regrowth of new hair, but not to an extend that is cosmetically apparent at distance; no effect in cases of no or only marginal regrowth of hair; conditions: one person, treated for 9 months, 3% solution topically
# Protocol: as §4, §1, §2, §3
# One person with very bad hair condition and underlying psoriasis was treated for 9 months and a very good effect on the test drug was obtained.
# [4] = system: hair loss secondary to anti-cancer treatment; assay: Pilot study of sodium sucrose sulfate, prophylactic and therapeutic, in hair loss secondary to anti-cancer treatment
# Description: The test preparation containing sodium sucrose sulfate from Example 11 was used both prophylactically and therapeutically in a few patients undergoing radiation and/or cytostatic anti-cancer treatment. One person started the treatment with the test preparation immediately after the anti-cancer treatment was instituted, applying the test preparation twice daily on eyebrows and eyelashes on the right side, and the left side served as untreated control. The treatment lasted four weeks. […] Another four females - also on anti-cancer treatment - used the test preparation twice daily, topically on the scalp after the hair was lost.
# total alopecia = assay: Clinical pilot study of topical micronized sucralfate in alopecia: total alopecia; conditions: one patient, total alopecia for 20 years, 5% micronized sucralfate twice daily for 6 weeks
# Description: (§5) A composition containing micronized sucralfate (<5 µm, Giulini Chemie, Germany) 5%, ethanol 25%, propylene glycol 25%, and distilled water 45%, was used in two daily applications on the scalp, the composition being dispensed in a bottle with sponge applicator. The average consumption of the test preparation in individual patients was about one bottle per month. […] The effects were lasting after stopping the treatment for about 4 months.
# Male androgenic alopecia [5] = assay: Clinical pilot study of topical micronized sucralfate in alopecia: male androgenic alopecia
# Description: as §5
# [6] = system: common male-pattern baldness; assay: Treatment with sucralfate cream of common male-pattern baldness (single case, Example 14); conditions: 10% w/w sucralfate preparation, two daily topical applications, person, after 3-4 weeks
# Description: At the beginning, a "plume" appeared in the area, and after a few days the "plume" began turning into real hairs and 8 days after, there were dozens of real hairs which were indistinguishable from other hairs of the scalp, apart from being shorter and all coloured in the original colour of the hair, in contrast to the existing hair, which was partially greyed.
# [7] = age group 17-25 years, 20 patients
# [8] = age group 25-40 years, 10 patients
# [9] = age group >40 years, 5 patients
compound,measurement,setting,value
"O=S(=O)(O)OC[C@H]1O[C@@](COS(=O)(=O)O)(O[C@H]2O[C@H](COS(=O)(=O)O)[C@@H](OS(=O)(=O)O)[C@H](OS(=O)(=O)O)[C@H]2OS(=O)(=O)O)[C@@H](OS(=O)(=O)O)[C@@H]1OS(=O)(=O)O [sodium sucrose sulfate, Sodium sucrose octasulfate]",number of patients with good effect,Ludwig type alopecia,3 patients
same,number of patients with only a marginal effect,Ludwig type alopecia,2 patients
same,clinical effect,underlying discoid LE,very good
same,clinical effect,alopecia areata,very good
same,effect of treatment,"[1]; person with 2-3 years of alopecia, treatment for 8 months",only little effect
same,regrowth of hair,"[1]; person, bald for 20 years, treatment for 10 months",complete regrowth of hair
same,clinical effect,"Male androgenic alopecia [2]; age group 17-25, previously failed on minoxidil, 3% solution topically",no effect
same,clinical effect,"Male androgenic alopecia [2]; age group 25-40, previously failed on minoxidil, 3% solution topically",good
same,Clinical effect Good (number of patients),Male androgenic alopecia [2]; [7],8
same,Clinical effect No effect (number of patients),Male androgenic alopecia [2]; [7],4
same,Clinical effect Very good (number of patients),Male androgenic alopecia [2]; [7],8
same,Clinical effect Good (number of patients),Male androgenic alopecia [2]; [8],2
same,Clinical effect No effect (number of patients),Male androgenic alopecia [2]; [8],2
same,Clinical effect Very good (number of patients),Male androgenic alopecia [2]; [8],4
same,Clinical effect Good (number of patients),Male androgenic alopecia [2]; [9],2
same,Clinical effect No effect (number of patients),Male androgenic alopecia [2]; [9],2
same,time of treatment until hair-growing effect apparent,"Male androgenic alopecia [2]; patients responding to the treatment, whole pilot study, typical value",~1 month
same,effect in comparison to topically applied minoxidil (Regain®),"Male androgenic alopecia [2]; whole pilot study, 3% solution topically",markedly better effect
same,clinical effect,[3],very good
same,regrowth of hair after loss,"[4]; four females on anti-cancer treatment, twice daily topically on the scalp after the hair was lost",much faster regrowth of hair than normally
same,prevention of loss of eyebrows and eyelashes,"[4]; one on anti-cancer treatment, twice daily on right side for four weeks, left side untreated control (lost)",eyebrows and eyelashes remained
sucrose octakis(hydrogen sulfate) aluminium complex [sucralfate],regrowth of hair,total alopecia,dense regrowth of fine short terminal hairs all over the scalp
same,regrowth of hair,"Male androgenic alopecia [5]; one person, Hamilton grade 3, 5% micronized sucralfate twice daily for two months",dense regrowth of small terminal hairs
same,duration of effects after stopping the treatment,"Male androgenic alopecia [5]; one person, Hamilton grade 3, after two months of treatment",about 4 months
same,regrowth of hair,"Male androgenic alopecia [5]; six male patients aged 30 to 48 years, Hamilton grade 3 and 4, 5% micronized sucralfate twice daily for 3 to 6 months, all six cases",definite regrowth of terminal hairs
same,time of treatment until effect seen,"Male androgenic alopecia [5]; six male patients, Hamilton grade 3 and 4, typical value",6-8 weeks
same,appearance of hair,[6],appearance of hair in the otherwise bald lateral-frontal areas
